Source: ChEMBL document CHEMBL4311972, “Discovery of a benzothiophene-flavonol halting miltefosine and antimonial drug resistance in Leishmania parasites through the application of medicinal chemistry, screening and genomics” (Eur J Med Chem, 2019)
“And” between values parts separate entries of the source, which are not always exact repeats. Equal entries are not always repeated. The source made the active and inactive calls. The rule behind the calls is not given here.

Tests used:
[1] = Toxicity in Syrian hamster infected with Leishmania infantum BCN150 promastigotes assessed as effect on AST level at 40 mg/kg/day, po for 10 days formulated with 30 to 50% v/v cyclodextrin measured after the last treatment; type: organism-based, Mesocricetus auratus; details: in vivo, 240 h
[2] = Toxicity in Syrian hamster infected with Leishmania infantum BCN150 promastigotes assessed as liver weight at 40 mg/kg/day, po for 10 days formulated with 30% v/v cyclodextrin (reference value: 5.102 +/- 0.729 g); type: organism-based, Mesocricetus auratus; details: in vivo, 240 h
[3] = Chemical stability of compound in DMSO at 60 uM assessed as drug degradation measured at room temperature in dark after 1 day by UV-vis spectrophotometric analysis; type: physicochemical; details: read-out: Drug degradation
[4] = Toxicity in Syrian hamster infected with Leishmania infantum BCN150 promastigotes assessed as effect on alkaline phosphatase level at 40 mg/kg/day, po for 10 days formulated with 30 to 50% v/v cyclodextrin measured after the last treatment; type: organism-based, Mesocricetus auratus; details: in vivo, 240 h
[5] = Toxicity in Syrian hamster infected with Leishmania infantum BCN150 promastigotes assessed as spleen weight at 40 mg/kg/day, po for 10 days formulated with 50% v/v cyclodextrin (reference value: 0.191 +/- 0.061 g); type: organism-based, Mesocricetus auratus; details: in vivo, 240 h
[6] = Plasma concentration in syrian hamster infected with Leishmania infantum BCN150 promastigote at 40 mg/kg/day, po for 10 days formulated with 8% v/v DMSO; type: ADME, organism-based, Mesocricetus auratus
[7] = Cmax in BALB/c mouse at 20 mg/kg, po measured upto 72 hrs by snapshot method; type: ADME, organism-based; design: dose 20 mg/kg, route oral; details: in vivo
Leishmania infantum [8] = experiment: Antileishmanial activity against Leishmania infantum amastigotes infected in Syrian hamster assessed as parasite load within spleen at 40 mg/kg/day, po for 10 days formulated with 50% v/v cyclodextrin (reference value: 8508698.676 +/- 2835609.487/g); type: functional
[9] = Chemical stability of compound in PBS assessed as decrease in absorbance at 20 uM at pH 8 measured after 2 mins nitrogen bubbling by UV-vis spectrophotometry analysis; type: physicochemical; details: read-out: Drug degradation
Leishmania infantum [10] = experiment: Anti-leishmanial activity against Leishmania infantum BCN150 promastigotes infected in Syrian hamster assessed as decrease in anti-leishmanial IgG level at 40 mg/kg/day, po for 10 days formulated with […] v/v DMSO by ELISA; type: functional, organism-based
[11] = Cytotoxicity against human THP1 cells by MTT assay; type: cell-based, THP-1
Albumin = Albumin (Bos taurus, UniProt P02769); experiment: Binding affinity to bovine serum albumin in phosphate buffer assessed as compound lifetime at 530 nm at 5 uM measured at pH 8 by fluorescence emission spectrum analysis; type: ADME; details: cattle, isolated protein
[12] = AUC (total) in BALB/c mouse at 20 mg/kg, po measured upto 72 hrs by snapshot method; type: ADME, organism-based; design: time < 72 hr, dose 20 mg/kg, route oral; details: in vivo
[13] = Toxicity in Syrian hamster infected with Leishmania infantum BCN150 promastigotes assessed as adverse effects at 20 mg/kg/every 12 hrs, po for 10 days formulated with 30% v/v cyclodextrin measured daily; type: organism-based, Mesocricetus auratus; details: in vivo
[14] = Tmax in BALB/c mouse at 20 mg/kg, po measured upto 72 hrs by snapshot method; type: ADME, organism-based; details: in vivo
[15] = Toxicity in Syrian hamster infected with Leishmania infantum BCN150 promastigotes assessed as effect on ALT level at 40 mg/kg/day, po for 10 days formulated with 8% v/v DMSO measured after the last treatment; type: organism-based, Mesocricetus auratus; details: in vivo, 240 h
[16] = Toxicity in Syrian hamster infected with Leishmania infantum BCN150 promastigotes assessed as effect on AST level at 40 mg/kg/day, po for 10 days formulated with 8% v/v DMSO measured after the last treatment; type: organism-based, Mesocricetus auratus; details: in vivo, 240 h
[17] = Tmax in BALB/c mouse at 1 mg/kg, iv measured upto 72 hrs by snapshot method; type: ADME, organism-based; details: in vivo
[18] = Toxicity in Syrian hamster infected with Leishmania infantum BCN150 promastigotes assessed as effect on alkaline phosphatase level at 40 mg/kg/day, po for 10 days formulated with 8% v/v DMSO measured after the last treatment; type: organism-based, Mesocricetus auratus; details: in vivo, 240 h
Leishmania infantum [19] = experiment: Antileishmanial activity against Leishmania infantum amastigotes infected in Syrian hamster assessed as parasite load within spleen at 40 mg/kg/day, po for 10 days formulated with 30% v/v cyclodextrin (reference value: 9874032.937 +/- 3482270.184/g); type: functional
Leishmania infantum [20] = experiment: Antileishmanial activity against Leishmania infantum amastigotes infected in Syrian hamster assessed as reduction in parasite load at 40 mg/kg/day, po for 10 days formulated with 50% v/v cyclodextrin relative to control; type: functional; details: 240 h
Leishmania infantum [21] = experiment: Antileishmanial activity against Leishmania infantum amastigotes infected in Syrian hamster assessed as parasite load within spleen at 40 mg/kg/day, po for 10 days formulated with 8% v/v DMSO (reference value: 9151063.431 +/- 2606154.975/g); type: functional
Beta-casein = target: T1, Beta-casein (Bos taurus, UniProt P02666); experiment: Binding affinity to bovine milk beta-casein in phosphate buffer assessed as compound lifetime at 530 nm at 5 uM measured at pH 8 by fluorescence emission spectrum analysis; type: ADME; details: cattle
T1 sequence (P02666 whole entry): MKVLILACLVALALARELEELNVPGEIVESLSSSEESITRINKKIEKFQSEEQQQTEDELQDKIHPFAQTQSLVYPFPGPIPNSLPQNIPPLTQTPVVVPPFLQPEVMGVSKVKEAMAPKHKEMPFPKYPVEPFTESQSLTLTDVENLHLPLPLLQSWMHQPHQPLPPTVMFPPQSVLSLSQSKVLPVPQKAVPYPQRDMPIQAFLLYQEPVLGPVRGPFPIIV

[22] = Binding affinity to pepsin in porcine gastric mucosa in phosphate buffer assessed as increase in emission intensity at 530 nm at 5 uM measured at pH 8 by fluorescence emission spectrum analysis; type: ADME, Sus scrofa; details: pig
[23] = Stability of the compound in phosphate buffer assessed as compound lifetime at 450 nm at 5 uM measured at pH 8 by fluorescence emission spectrum analysis; type: physicochemical; details: pH 8, 0.45 µM
Leishmania infantum [24] = experiment: Antileishmanial activity against Leishmania infantum amastigotes infected in Syrian hamster assessed as reduction in parasite load in liver at 20 mg/kg/day, po for 10 days relative to control; type: functional; details: 240 h
[25] = Plasma concentration in syrian hamster infected with Leishmania infantum BCN150 promastigote at 20 mg/kg/day, po for 10 days; type: ADME, organism-based, Mesocricetus auratus
Leishmania infantum [26] = experiment: Antileishmanial activity against Leishmania infantum amastigotes infected in Syrian hamster assessed as parasite load within spleen at 20 mg/kg/day, po for 10 days (reference value: 9151063.431 +/- 2606154.975/g); type: functional
[27] = Toxicity in Syrian hamster infected with Leishmania infantum BCN150 promastigotes assessed as effect on plasma urea level at 20 mg/kg/day, po for 10 days measured after the last treatment; type: organism-based, Mesocricetus auratus; details: in vivo, 240 h
[28] = Toxicity in Syrian hamster infected with Leishmania infantum BCN150 promastigotes assessed as liver weight at 20 mg/kg/day, po for 10 days (reference value: 5.874 +/- 0.414 g); type: organism-based, Mesocricetus auratus; details: in vivo, 240 h
[29] = Toxicity in Syrian hamster infected with Leishmania infantum BCN150 promastigotes assessed as distress effect at 20 mg/kg/day, po for 10 days measured daily; type: organism-based, Mesocricetus auratus; details: in vivo, 240 h

Sequence of Albumin (P02769 whole entry): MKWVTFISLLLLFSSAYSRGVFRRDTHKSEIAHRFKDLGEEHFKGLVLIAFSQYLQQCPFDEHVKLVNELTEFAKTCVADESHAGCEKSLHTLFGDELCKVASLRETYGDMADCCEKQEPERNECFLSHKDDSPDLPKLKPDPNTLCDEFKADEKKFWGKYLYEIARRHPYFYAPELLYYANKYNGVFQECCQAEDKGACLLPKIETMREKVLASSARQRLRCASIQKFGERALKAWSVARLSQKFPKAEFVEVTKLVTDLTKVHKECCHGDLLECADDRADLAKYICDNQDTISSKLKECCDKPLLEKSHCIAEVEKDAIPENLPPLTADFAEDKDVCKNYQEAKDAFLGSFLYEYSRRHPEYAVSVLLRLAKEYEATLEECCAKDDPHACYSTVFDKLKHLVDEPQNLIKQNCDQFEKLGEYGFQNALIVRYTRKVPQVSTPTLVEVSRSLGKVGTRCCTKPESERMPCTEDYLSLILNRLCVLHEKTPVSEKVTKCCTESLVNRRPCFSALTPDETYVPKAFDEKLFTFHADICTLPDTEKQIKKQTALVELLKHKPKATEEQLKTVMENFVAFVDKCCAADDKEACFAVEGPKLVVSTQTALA

In the case of `COc1ccc2oc(-c3csc4ccccc34)c(O)c(=O)c2c1`, the Activity [1] is reported as “Non-Toxic”, the Activity [2] is reported as 5.448 g and the degraded at 24 h, 60 µM [3] is reported as 1%. For the same compound, the Activity [4] was “Non-Toxic”, the Activity [5] was 0.191 g and the concentration at 240 h [6] was 44 nM. For the same compound, the Cmax [7] was 1.96 µM and 630 ng/mL, the Activity (Leishmania infantum [8]) was 5465832.19 g⁻¹ and the degraded at 2 min, 20 µM [9] was over 90%. The inhibition (Leishmania infantum [10]) was “Active”, the CC50 [11] was 25 to 50 µM and the Time (Albumin) was 5.5 nanoseconds. For the same compound, the AUC at 72 h [12] was 38.5 µM·h and 12500 ng·h/mL, the Activity [13] was “Non-Toxic” and the Tmax [14] was 1 h. The Activity [15] was “Non-Toxic”, the Activity [16] was “Non-Toxic” and the Tmax [17] was 4.8 min. The Activity [18] was “Non-Toxic”, the Activity (Leishmania infantum [19]) was 7030915.598 g⁻¹ and the inhibition in vivo at 40 mg/kg/day (Leishmania infantum [20]) was 35.8%. The Activity (Leishmania infantum [21]) was 6785423.957 g⁻¹, the Time (Beta-casein) was 5.5 nanoseconds and the Activity [22] was “Active”. The Time [23] was 0.32 nanoseconds.
`CCCCCCCCCCCCCCCCOP(=O)([O-])OCC[N+](C)(C)C` [MILTEFOSINE] showed an inhibition in vivo at 20 mg/kg/day (Leishmania infantum [24]) of 81.2%, a concentration at 240 h [25] of 59.3 µM and an Activity (Leishmania infantum [26]) of 244476.109 g⁻¹. The Activity [27] was “Non-Toxic”, the Activity [28] was 5.996 g and the Activity [29] was “Toxic”.
